{"source": "paper PMC9414874", "about": "“New Benzimidazoles Targeting Breast Cancer: Synthesis, Pin1 Inhibition, 2D NMR Binding, and Computational Studies” (Molecules, 2022)", "key": {"[1]": {"tested_on": "MCF-7", "assay": "MTT cytotoxicity assay against breast cancer cell line MCF-7", "settings": "for IC50: Homo sapiens", "protocol": "All our newly synthesized hybrids were evaluated for their in vitro anticancer activity by the standard MTT assay against a breast cancer cell line (MCF-7). MTT is a calorimetric assay which relies on the ability of live tumor cells to reduce yellow MTT (3-(4,5-dimethylthiazol-2-yl)-2,5-diphenyltetrazolium bromide) to purple formazan by mitochondrial dehydrogenases, then added DMSO to dissolve the purple formazan and quantified by measuring absorbance at a certain wavelength. The dose response curve for compounds-treated vs. untreated cells is used to quantify the amount of formazan produced to report on the effectiveness of the compounds. […] Cell line: Mammary gland breast cancer (MCF-7). The cell line was obtained from ATCC via Holding company for biological products and vaccines (VACSERA), Cairo, Egypt. […] The cell line elucidated above were used to determine the inhibitory effects of compounds on cell growth using the MTT assay. […] After incubation, the cells were treated with different concentrations of compounds and incubated for an additional 24 h. After 24 h of drug treatment, 20 µL of MTT solution at 5 mg/mL was added and incubated for 4 h. […] The relative cell viability in percentage was calculated as (A570 of treated samples/A570 of the untreated sample) × 100 [48]."}, "[2]": {"assay": "In vitro cytotoxicity against normal Human lung fibroblast (WI38) cell line", "assay_type": "cell-based", "settings": "human, WI38 normal lung fibroblast cells"}, "[3]": {"tested_on": "WI38", "assay": "In vitro cytotoxicity against normal Human lung fibroblast (WI38) cell line", "assay_type": "cell-based"}, "[4]": {"tested_on": "MCF-7 cells", "assay": "Cell cycle distribution / DNA content by flow cytometry", "assay_type": "cell-based, human", "settings": "MCF-7, 2 µM, 24 h"}, "[5]": {"tested_on": "MCF-7 cells", "assay": "Annexin V-FITC/PI dual staining apoptosis assay", "assay_type": "cell-based, human", "settings": "MCF-7, 2 µM, 24 h", "protocol": "This assay was performed using a breast MCF-7 cell line to determine the percentage of apoptosis induced by compound 8, in which MCF-cells were incubated with compound 8 at 2 µM concentration for 24 h.\nApoptosis detection was performed by using Annexin V-FITC and PI apoptosis kit (eBioscience^TM, San Diego, CA, USA). Mcf cells were plated at a 600,000 cells/mL density onto a six well plate. After 24 h of incubation, the cells were treated with compound 8 at […]. Cells grown in media containing an equivalent amount of DMSO served as solvent control. After 24 h, the cells were stained with an Annexin V-FITC conjugate and propidium iodide (PI), and the percentage of apoptotic, necrotic, and living cells was determined according to the protocol provided by the Annexin V-FITC and PI apoptosis kit. The cells’ emitted fluorescence was analyzed by flow cytometry (NovoCyte, ACEA Biosciences Inc., San Diego, CA, USA) through the NovoExpress 1.3.0 software (ACEA Biosciences Inc., San Diego, CA, USA), acquiring 1 × 104 events per sample using the population plot “dot plot”, where each point corresponds to a single event with a specific fluorescence signal about the axes; Annexin V-FITC green fluorescence in abscissa vs. PE red fluorescence inordinate."}, "[6]": {"tested_on": "BAX", "assay": "BAX level by ELISA in MCF-7 cells", "assay_type": "cell-based, human", "protocol": "(§1) Apoptosis can be excited by different stimuli via intrinsic and extrinsic pathways. It was reported that pin 1 inhibition involving apoptosis was performed via intrinsic mitochondrial l) pathways. […] The Bax/Bcl-2 ratio plays an important role in controlling the release of mitochondrial cytochrome c, after its release to the cytosol, caspase 9 is activated which can mediate downstream caspase activation including: caspase-3, caspase-6, and caspase-7 that obligated cells to apoptosis. Based on the above, we examined compound 8 capability to trigger intrinsic apoptotic pathways by affecting the expression of these markers in MCF-7 cells. […] In addition, it elevated the level of cytochrome C by about 2.49-fold compared to the control. […]\n(§2) The level of BAX, Bcl-2, cytochrome C, and caspases 6, 7, and 9 were estimated using ELISA colorimetric kits; for BAX (DRG® Human Bax ELISA, EIA-4487), Bcl-2 (Zymed® Bcl-2 ELISA Kit), cytochrome c (Abcam cytochrome c Human ELISA kit, ab119521), caspase-6 (Human CASP6, ELISA Kit, MBS2533323), caspase-7 (Caspase-7 (Human) ELISA Kit, E4295-100), caspase-9 (DRG® Caspase-9 (human) ELISA, EIA-4860). […] This lysate was diluted in Standard Diluent Buffer all over the assay, then by using a microplate reader set at 450 nm, the optical density of each well was determined within 30 min to determine the human active BAX, Bcl-2, cytochrome C, caspases 6, 7 and 9 content."}, "[7]": {"tested_on": "Bcl-2", "assay": "Bcl-2 level by ELISA in MCF-7 cells", "assay_type": "cell-based, human", "protocol": "as §1, §2"}, "[8]": {"tested_on": "cytochrome C", "assay": "Cytochrome c level by ELISA in MCF-7 cells", "assay_type": "cell-based, human", "protocol": "as §1, §2"}, "[9]": {"tested_on": "caspase-6", "assay": "Caspase-6 level by ELISA in MCF-7 cells", "assay_type": "cell-based, human", "settings": "mean ± SD of three experiments", "protocol": "as §1, §2"}, "[10]": {"tested_on": "caspase-7", "assay": "Caspase-7 level by ELISA in MCF-7 cells", "assay_type": "cell-based, human", "protocol": "as §1, §2"}, "[11]": {"tested_on": "caspase-9", "assay": "Caspase-9 level by ELISA in MCF-7 cells", "assay_type": "cell-based, human", "protocol": "as §1, §2"}, "[12]": {"tested_on": "ROS in MCF-7 cells", "assay": "Intracellular ROS accumulation assay (Human ROS ELISA Kit)", "assay_type": "cell-based", "source_text": "Reactive oxygen species (ROS) are chemically reactive species containing oxygen atoms including peroxides, superoxide, and hydroxyl radicals. They play an important role in the activation of apoptosis under physiological or pathological conditions. Direct or indirect ROS action can mediate the release of mitochondrial cytochrome c which trigger the induction of caspase. The intracellular level of ROS was estimated by The Human ROS ELISA Kit, which is based on standard sandwich enzyme-linked immunosorbent assay technology.\nThe Human ROS ELISA Kit is based on standard sandwich enzyme-linked immunosorbent assay technology. In which, the anti-Human ROS specific antibody has been pre-coated onto a 96-well plate and the human ROS present in the standards/samples bind to the capture antibody. Then biotinylated anti-Human ROS detection antibody is added to form an Ab-Ag-Ab sandwich. After a washing step, streptavidin-HRP is added and the unbound conjugate is removed with wash buffer. Subsequently, the addition of HRP substrate, TMB, results in the production of a blue-colored product that changes to yellow after the addition of acidic Stop Solution, and the density of yellow color is directly proportional to the amount of Human ROS captured on the plate. […] After that adding 90 μL TMB substrate, incubating 15–30 min at 37 °C, adding 50 μL Stop Solution and reading at 450 nm immediately. […]"}, "[13]": {"target": "Pin1 (Homo sapiens, UniProt Q13526)", "sequence (Q13526 whole entry)": "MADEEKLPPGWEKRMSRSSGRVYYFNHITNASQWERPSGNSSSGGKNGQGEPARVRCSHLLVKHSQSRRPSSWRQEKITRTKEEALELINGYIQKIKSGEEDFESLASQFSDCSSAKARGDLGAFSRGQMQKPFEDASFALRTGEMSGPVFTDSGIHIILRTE", "assay": "Pin1 inhibition assay (SensoLyte Green Pin1 Assay Kit)", "assay_type": "biochemical", "parameters": "purchased", "settings": "means ± SD of three experiments", "protocol": "The ability of the synthesized compounds to inhibit the Pin1 activity was evaluated using the SensoLyte® Green Pin1 Assay Kit. This assay is based on using a fluorogenic substrate which was pretreated to convert it into the cis isomer. Pin1 can change this substrate into the trans isomer that is easily cleaved to generate a fluorescent signal."}}, "note": "Where “and” joins values, the source holds several entries; their conditions need not be identical. Identical values can stand only once. Like-named read-outs stand apart in the source and are kept apart here."}
{"smiles": "CN(C)c1ccc(C2CC(c3nc4cc(Cl)c(Cl)cc4[nH]3)=NO2)cc1", "note": "(stereo not shown) [Compound 8, 4-(3-(5,6-Dichloro-1H-benzo[d]imidazol-2-yl)-4,5-dihydroisoxazol-5-yl)-N,N-dimethylaniline]", "values": [{"measurement": "IC50", "setting": "[1]; MCF7, 24 h, read-out: In Vitro Cytotoxicity IC50 MCF-7, MTT assay, 24 h treatment", "result": "8.7 ± 0.6", "unit": "µM"}, {"measurement": "IC50", "setting": "[1]; MCF7, read-out: IC50 against breast cancer cell line (MCF-7), MTT assay, section 2.2", "result": 8.76, "unit": "µM"}, {"measurement": "Cytotoxic activity class against MCF-7", "setting": "[1]; class by IC50", "result": "very strong (1–10 (very strong))"}, {"measurement": "IC50 at 24 h", "setting": "[2]", "result": 71.6, "unit": "µM"}, {"measurement": "IC50", "setting": "[3]", "result": "71.6 ± 4", "unit": "µM"}, {"measurement": "DNA Content %G0-G1", "setting": "[4]", "result": 44.29, "unit": "%"}, {"measurement": "DNA Content %G2-M", "setting": "[4]", "result": 6.45, "unit": "%"}, {"measurement": "DNA Content %Pre G1", "setting": "[4]", "result": 38.25, "unit": "%"}, {"measurement": "DNA Content %S", "setting": "[4]", "result": 49.26, "unit": "%"}, {"measurement": "Apoptosis Early", "setting": "[5]", "result": "3.7% and 3.71%"}, {"measurement": "Apoptosis Late", "setting": "[5]", "result": 15.32, "unit": "%"}, {"measurement": "Apoptosis Total", "setting": "[5]", "result": 38.25, "unit": "%"}, {"measurement": "Increase of apoptosis (15.32%) over untreated cells", "setting": "[5]", "result": 128, "unit": "fold"}, {"measurement": "Necrosis", "setting": "[5]", "result": 19.22, "unit": "%"}, {"measurement": "Increase of Bax level compared to the control", "setting": "[6]", "result": 4.63, "unit": "fold"}, {"measurement": "BAX level", "setting": "[6]; mean ± SD of three experiments", "result": "268.71 ± 9.20", "unit": "pg/mL"}, {"measurement": "Decrease of Bcl-2 level compared to the control", "setting": "[7]", "result": 39, "unit": "%"}, {"measurement": "BCL-2 level", "setting": "[7]; mean ± SD of three experiments", "result": "2.81 ± 0.07", "unit": "ng/mL"}, {"measurement": "Elevation of cytochrome C level compared to the control", "setting": "[8]", "result": "about 2.49 fold"}, {"measurement": "Cytoc level", "setting": "[8]; mean ± SD of three experiments", "result": "0.62 ± 0.02", "unit": "ng/mL"}, {"measurement": "Casp.6 level", "setting": "[9]", "result": "0.48 ± 0.02", "unit": "ng/mL"}, {"measurement": "Enhancement of caspase 7 level compared to the control", "setting": "[10]", "result": "~9.06", "unit": "fold"}, {"measurement": "Casp.7 level", "setting": "[10]; mean ± SD of three experiments", "result": "4.17 ± 0.11", "unit": "ng/mL"}, {"measurement": "Enhancement of caspase 9 level compared to the control", "setting": "[11]", "result": "~8.97", "unit": "fold"}, {"measurement": "Casp.9 level", "setting": "[11]; mean ± SD of three experiments", "result": "20.86 ± 0.73", "unit": "ng/mL"}, {"measurement": "ROS accumulation higher than the control cells", "setting": "[12]", "result": 1.258, "unit": "fold"}, {"measurement": "melting point", "result": "155 to 158", "unit": "°C"}, {"measurement": "IC50", "setting": "[13]", "result": "0.00076 ± 4e-05", "unit": "µM"}]}
